Reference: patent US8304371B2, “Insecticidal arylpyrrolines” (Bayer Cropscience AG, priority 2008, dated 2012)
Like-named read-outs stand apart in the source and are kept apart here.

Tests used:
Assay type in all cases: in vivo
[1] = system: Tobacco Cutworm (Spodoptera litura) Larvae; assay: Test against tobacco cutworm (Spodoptera litura) larvae, leaf dip; settings: active compound concentration 100 ppm; third-instar larvae; after 7 days
Description: (§1) Unless nomentioned otherwise, the test solutions were prepared as follows:
(§2) Containing as solvent: Dimethylformamide, 3 parts by weight; and as emulsifier: Polyoxyethylene alkyl phenyl ether, 1 part by weight
(§3) To prepare the test solution, 1 part by weight of an active compound is mixed with the above-mentioned amount of solvent containing the above-mentioned amount of emulsifier, and the mixture is diluted with water to the desired concentration.
The leaves of sweet potato were immersed in the test solution at the appropriate concentration, and the leaves were dried in air. The leaves were then placed in a petri dish having a diameter of 9 cm, and ten third-instar larvae of tobacco cutworm were released therein. The petri dish was placed in a temperature chamber at 25° C. After 2 days and 4 days sweet potato leaves were additionally added. After 7 days, the number of dead larvae was counted, to calculate the insecticidal activity. An insecticidal activity of 100% means that all larvae were killed, whereas an insecticidal activity of 0% means that no larva was killed. In the current test, the results of two petri dishes for each partition were averaged.

[2] = system: Two-Spotted Spider Mite (Tetranvchus urticae); assay: Test against two-spotted spider mite, spray on kidney bean; settings: active compound concentration 100 ppm; adult mites; after 7 days
Description: as §1, §2, §3
50 to 100 adult two-spotted spider mites were inoculated onto the leaves of kidney beans at the two-true leaf stage, which plant had been cultivated in a pot having a diameter of 6 cm. After one day, test solution at the appropriate concentration was sprayed thereon in a sufficient amount using a spray gun. After the spraying, the plant pot was placed inside a greenhouse, and after 7 days, the acaricidal activity was calculated. An acaricidal activity of 100% means that all mites were killed, whereas an acaricidal activity of 0% means that no mite was killed.

[3] = system: Cucurbit Leaf Beetle (Aulacophora femoralis); assay: Test against cucurbit leaf beetle, cucumber leaf dip; settings: active compound concentration 100 ppm; second-instar larvae; after 7 days
Description: as §1, §2, §3
Cucumber leaves were immersed in the test solution at the appropriate concentration, and the leaves were dried in air. The leaves were then placed in a plastic cup containing aseptically sterilized black soil, and five second-instar larvae of cucurbit leaf beetle were released therein. After 7 days, the number of dead larvae was counted, and thus the insecticidal activity was calculated. An insecticidal activity of 100% means that all beetles were killed, whereas an insecticidal activity of 0% means that no beetle was killed.

[4] = system: Strain of Green Peach Aphid (Mvzus persicas) which is Resistant to Organic Phosphorus and Carbamate Agents; assay: Test against resistant green peach aphid, spray on egg plant; settings: active compound concentration 500 ppm; after 7 days
Description: as §1, §2, §3
About 30 to 50 of the resistant green peach aphids were inoculated per seedling, onto the leaves of egg plant at the two-true leaf stage, which plant had been cultivated in a pot having a diameter of 6 cm. One day after the inoculation, the test solution at the appropriate concentration was sprayed thereon in a sufficient amount using a spray gun. After the spraying, the plant pot was placed in a greenhouse at 28° C., and after 7 days, the insecticidal activity was calculated. An insecticidal activity of 100% means that all aphids were killed, whereas an insecticidal activity of […] means that no aphid was killed. The test was repeated two times.

[5] = system: Cat Fleas (Ctenocephalides fells); assay: Test against cat fleas, blood feeding; settings: for mortality at 100 ppm: Ctenocephalides, 48 h, read-out: mortality rate
Description: (§4) Solvent: Dimethylsulfoxide
About 10 to 15 adult cat fleas are provided in a container exclusive for fleas. An exclusive container containing the test solution is covered with Parafilm, reversed upside down, and then mounted on top of the flea container, so that the cat fleas can suck the blood in the container. The test solution is maintained at 37° C., and the flea container is maintained at room temperature. After 2 days the mortality rate of the cat fleas is measured. 100% means that all of the cat fleas have been killed, while 0% means that all are alive.

[6] = system: Cattle Tick (Boophilus microplus); assay: Test against cattle tick, injection; settings: 20 μg/animal injected; after 7 days; 100% means that all eggs are infertile
Description: as §4
In order to make a suitable test solution, 10 mg of an active compound is dissolved in 0.5 ml of the above mentioned solvent, and the mixture is diluted with water to a predetermined concentration.
The test solution is injected into the abdomens of five fully-fed female adult cattle ticks. The cattle ticks are transferred to a replica plate, and are bred in a breeding vessel for a certain time period. Egg deposition of fertile eggs is monitored.
After 7 days the mortality rate of the cattle ticks is measured. 100% means that all eggs are infertile; and 0% means that all eggs are fertile.

[7] = system: Sheep Blowfly (Lucillia cuprina); assay: Test against sheep blowfly; settings: active compound concentration 100 ppm; after 2 days
Description: as §4
(§5) In order to make a suitable test solution, 10 mg of an active compound is dissolved in 0.5 ml of the solvent, and the mixture is diluted with water to a predetermined concentration.
Minced horse meat having a size of 1 square centimeter, and 0.5 ml of the test solution are placed in a test tube, and about 20 to 30 adult sheep blowflies are introduced therein.
After 2 days the mortality rate of the sheep blowflies is measured. 100% means that all of the sheep blowflies have been killed, and 0% means that all are alive.

[8] = system: Housefly (Musca domestica); assay: Test against housefly; settings: for mortality at 100 ppm: Musca domestica, 48 h, read-out: mortality rate
Description: as §4, §5
In a preliminary stage of the test, a piece of sponge having a certain size is soaked with a mixture of sugar and the test solution is placed in a test container. Ten adult houseflies are introduced to the container, and the container is covered with a perforated lid.
After 2 days, the mortality rate of the houseflies is measured. At that time, 100% means that all of the houseflies have been killed, and 0% means that all are alive.

[9] = system: Nymphs of the tick Amblyomma hebraeum; assay: Amblyomma hebraeum test, nymph immersion; settings: 48 h, read-out: activity (mortality in %)
Description: as §4
To produce a suitable preparation of active compound. 1 part by weight of active compound is mixed with the stated amount of solvent, and the concentrate is diluted with containing solvent to the desired concentration.
Nymphs of the tick Amblyomma hebraeum are placed in perforated plastic beakers and immersed in aqueous compound solution for one minute. Ticks are transferred to a filter paper in a Petri dish and incubated in a climate chamber for 42 days.
After 2 days mortality in % is determined. 100% means that all the ticks have been killed; 0% means that none of the ticks have been killed.

[10] = system: adult engorged female Boophilus microplus ticks; assay: Boophilus microplus test, immersion of engorged females; settings: Rhipicephalus microplus, 168 h, read-out: activity (mortality in %)
Description: Solvent: Dimethylsulfoxid
To produce a suitable preparation of active compound, 10 mg of active compound are dissolved in 0.5 ml solvent, and the concentrate is diluted with water to the desired concentration.
Eight to ten adult engorged female Boophilus microplus ticks are placed in perforated plastic beakers and immersed in aqueous compound solution for one minute. Ticks are transferred to a filter paper in a plastic tray. Egg deposition of fertile eggs is monitored after.
After 7 days mortality in % is determined. 100% means that all the ticks have been killed; 0% means that none of the ticks have been killed.

[11] = active compound concentration 100 ppm in blood, adult fleas, after 2 days
[12] = application rate 100 ppm, immersed one minute, after 2 days
[13] = application rate 100 ppm, immersed one minute, after 7 days

| Structure (SMILES) | insecticidal activity [1] [%] | acaricidal activity [2] [%] | insecticidal activity [3] [%] | insecticidal activity [4] [%] | mortality rate [5, 11] | mortality rate [6] [%] | mortality rate [7] [%] | mortality rate ([8]; active compound concentration 100 ppm, adult houseflies, after 2 days) [%] | mortality at 100 ppm [5, 11] [%] | mortality at 100 ppm [8] [%] | mortality at 100 ppm [9, 12] [%] | mortality at 100 ppm [10, 13] [%] | mortality at 100 ppm [5] [%] | mortality at 100 ppm [9] [%] | mortality at 100 ppm [10] [%] |
| --- | --- | --- | --- | --- | --- | --- | --- | --- | --- | --- | --- | --- | --- | --- | --- |
| FC(F)(F)C1(c2cc(Cl)cc(Cl)c2)CN=C(c2ccc(-n3cncn3)c(Br)c2)C1 (stereo not shown) [1-21] | 100 | 100 | 100 | 100 | at least 90% | 100 | 100 | 100 | – | – | – | – | – | – | – |
| N#Cc1cc(C2=NCC(c3cc(Cl)c(Cl)c(Cl)c3)(C(F)(F)F)C2)ccc1-n1cncn1 (stereo not shown) [1-78, 2-(1H-1,2,4-triazol-1-yl)-5-[3-(3,4,5-trichlorophenyl)-3-(trifluoromethyl)-3,4-dihydro-2H-pyrrol-5-yl]-benzonitrile] | 100 | 100 | 100 | 100 | – | – | – | – | ≥ 80 | ≥ 80 | ≥ 80 | ≥ 80 | – | – | – |
| CC(=O)NCc1ccc(C2=NCC(c3cc(Cl)cc(Cl)c3)(C(F)(F)F)C2)cc1Br (stereo not shown) [2-13, N-{2-bromo-4-[3-(3,5-dichlorophenyl)-3-(trifluoromethyl)-3,4-dihydro-2H-pyrrol-5-yl]benzyl}acetamide] | 100 | – | – | – | – | – | – | – | ≥ 80 | ≥ 80 | – | ≥ 80 | – | – | – |
| O=C(CC(F)(F)F)NCc1ccc(C2=NCC(c3cc(Cl)c(Cl)c(Cl)c3)(C(F)(F)F)C2)c2ccccc12 (stereo not shown) [11-8] | 100 | 100 | 100 | 100 | – | – | – | – | – | – | – | – | – | – | – |
| CS/C(=N\C[Si](C)(C)C)c1ccc(COC(C)=O)c2ccccc12 [15-2, {4-[(Z)-(methylsulfanyl){[(trimethylsilyl)methyl]imino}methyl]naphthalen-1-yl}methyl acetate] | – | – | – | – | – | – | – | – | – | ≥ 80 | – | – | ≥ 80 | ≥ 80 | ≥ 80 |
| N#Cc1cc(C2=NCC(c3cc(Cl)cc(Cl)c3)(C(F)(F)F)C2)ccc1-n1cncn1 (stereo not shown) [Compound No. 1-39, 5-[3-(3,5-dichlorophenyl)-3-(trifluoromethyl)-3,4-dihydro-2H-pyrrol-5-yl]-2-(1H-1,2,4-triazol-1-yl)benzonitrile] | 100 | 98 | 100 | 98 | – | – | 100 | – | 100 | 100 | ≥ 80 | ≥ 80 | – | – | – |
